Results reported in ChEMBL document CHEMBL1129747, “Head group analogs of arachidonylethanolamide, the endogenous cannabinoid ligand” (J Med Chem, 1996).
pKi: −log10 of the molar value.

Experiments:
[1] = biological target: Cannabinoid receptor 2 (Mus musculus, UniProt P47936); assay: Compound was evaluated for its binding affinity for mouse spleen Cannabinoid receptor 2
[2] = biological target: Cannabinoid receptor 1 (Rattus norvegicus, UniProt P20272); assay: Displacement of [3H]CP-55940 from Cannabinoid receptor 1 of rat forebrain membranes; assay type: cell membranes, Membrane
Chain of Cannabinoid receptor 1 (P20272 whole entry): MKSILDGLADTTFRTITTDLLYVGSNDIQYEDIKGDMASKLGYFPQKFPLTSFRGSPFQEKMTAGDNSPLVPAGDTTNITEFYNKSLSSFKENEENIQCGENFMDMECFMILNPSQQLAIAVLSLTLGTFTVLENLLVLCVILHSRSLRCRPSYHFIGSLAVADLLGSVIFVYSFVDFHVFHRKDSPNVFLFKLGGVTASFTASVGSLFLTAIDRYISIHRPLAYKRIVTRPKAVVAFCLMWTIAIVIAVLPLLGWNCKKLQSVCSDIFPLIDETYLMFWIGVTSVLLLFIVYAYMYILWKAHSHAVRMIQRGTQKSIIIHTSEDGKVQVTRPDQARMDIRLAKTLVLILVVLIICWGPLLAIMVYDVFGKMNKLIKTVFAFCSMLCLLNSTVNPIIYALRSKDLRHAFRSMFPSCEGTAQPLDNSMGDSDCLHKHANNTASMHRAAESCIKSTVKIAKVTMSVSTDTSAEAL

Chain of Cannabinoid receptor 2 (P47936 whole entry): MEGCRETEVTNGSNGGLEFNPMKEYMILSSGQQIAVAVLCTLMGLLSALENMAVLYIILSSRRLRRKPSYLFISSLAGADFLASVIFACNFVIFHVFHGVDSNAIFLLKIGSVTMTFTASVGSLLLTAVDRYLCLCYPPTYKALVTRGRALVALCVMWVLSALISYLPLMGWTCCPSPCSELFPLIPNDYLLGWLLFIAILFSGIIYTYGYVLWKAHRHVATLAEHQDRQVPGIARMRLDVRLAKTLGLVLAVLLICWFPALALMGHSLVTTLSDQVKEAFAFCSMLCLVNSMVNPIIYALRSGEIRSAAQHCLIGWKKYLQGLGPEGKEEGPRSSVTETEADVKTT

## CCCCC/C=C\C/C=C\C/C=C\C/C=C\CCCC(=O)Nc1ccccc1O
[1]
  pKi: 5.68
[2]
  pKi: 5.78

## CCCCC/C=C\C/C=C\C/C=C\C/C=C\CCCC(=O)N[C@H]1CCCC[C@@H]1O
[2]
  pKi: < 5.52

## CCCCC/C=C\C/C=C\C/C=C\C/C=C\CCCC(=O)NC(CO)CO
[2]
  pKi: 6.44

## CCCCC/C=C\C/C=C\C/C=C\C/C=C\CCCC(=O)Nc1cccc(O)c1
[1]
  pKi: 5.51
[2]
  pKi: 5.81

## CCCCC/C=C\C/C=C\C/C=C\C/C=C\CCCC(=S)NCCO
[1]
  pKi: 5.20
[2]
  pKi: 5.86

## CCCCC/C=C\C/C=C\C/C=C\C/C=C\CCCC(=O)NCC(O)CC (stereo not given)
[2]
  pKi: 6.69

## CCCCC/C=C\C/C=C\C/C=C\C/C=C\CCCC(=O)Nc1ccc(O)cc1
[1]
  pKi: 4.89
[2]
  pKi: 5.75

## CCCCC/C=C\C/C=C\C/C=C\C/C=C\CCCC(=O)NCc1ccc(O)cc1
[1]
  pKi: 4.96
[2]
  pKi: 6.66

## CCCCC/C=C\C/C=C\C/C=C\C/C=C\CCCC(=O)NCCO [ANANDAMIDE]
[1]
  pKi: 5.72

## CCCCC/C=C\C/C=C\C/C=C\C/C=C\CCCC(=O)N[C@H](C)CO [METHANANDAMIDE]
[1]
  pKi: 6.09
